Reference: patent US20080070980A1, “Use Of Beta-Cryptoxanthin” (priority 2004, published 2008)

How the values were obtained:
[1] = tested on: mouse myoblast cell line C2C12; experiment: protein formation in C2C12 muscle cell cultures (BCA protein assay, Pico-green DNA assay); format: cell-based
Experimental: β-Cyptoxanthin enhances protein formation in muscle cell cultures
C2C12 cells from American Type Culture Collection (ATCC, CRL-1772).
The mouse myoblast cell line C2C12 was seeded into 6 cm^2 cell culture dishes at a density 2×10^5 cells/per well. Cells were cultivated in the presence of Dulbecco's […] (DMEM) containing a final concentration of 10% fetal calf serum, 4500 mg/L glucose, 100 IU/ml Penicillin & 100 μg/ml Streptomycin 2 mM L-Glutamine and 1 mM sodium pyruvate. One day post seeding, cells were supplemented with fresh medium containing β-cryptoxanthin with a final concentration of 0.25 μM or 1 μM or vehicle (tetrahydrofurane). β-cryptoxanthin stock solution was prepared in tetrahydrofurane and the solvent concentration in the media was kept constant at 0.14% for all treatment conditions. Cultivation in medium containing β-cryptoxanthin followed up for a total of 7 consecutive days. The medium was changed every second day. On each day, cells from one well per treatment group were scraped into 0.4 ml of a lysis buffer consisting of 20 mM Tris pH 7.5, NaCl 150 mM, EDTA 1 mM, Nonidet 1%, proteinase inhibitors (Roche Molecular Systems, Mannheim Germany) and sonicated.
Aliquots of 10 μl of this solution were used for total protein, and 2 μl for total DNA analysis. After centrifugation for 5 min at 10000 g, supernatants were used for protein and DNA analysis in the soluble fraction.
Protein was determined using the BCA Protein Assay Reagent (Pierce, Rockford, USA). The Pico-green Assay (Molecular Probes, Leiden, The Netherlands) was used for analysis of DNA content.
The amount of protein was calculated as μg/well or in relation to the amount of cells present in the well, as indirectly determined by the amount of DNA/well.

[2] = tested on: genes involved in protein synthesis; experiment: six weeks feeding study in SKH-1 mice, gene expression by GeneChip DNA microarray in kidney, liver, skin and spleen; format: in vivo; settings: 1200 ppm in feed with sodium cholate
Experimental: In a six weeks study, β-cryptoxanthin beadlets were mixed into the diet of SKH-1 mice to provide 1200 ppm β-cryptoxanthin in the feed. Further, 0.125 g of sodium cholate per 100 g of feed was added to facilitate the uptake of β-cryptoxanthin. The average β-cryptoxanthin intake was 6.5 mg pro mouse and pro day. After six weeks, the effect of this dose on the overall gene expression was studied. β-cryptoxanthin-mediated gene expression modifications were assessed by GeneChip® DNA microarray technology. Total RNA was extracted from kidney, liver, skin and spleen using the TRIzol® method according to the manufacturer protocol. Reverse Transcription was performed with 10 μg total RNA followed by second strand synthesis of cDNA. The cDNA was then transcribed into multiple cRNA copies and labelled by biotin-coupled nucleotides and fragmented. 10 μg of labelled and fragmented cRNA were hybridized on Affymetrix Mice Genome 430A microarrays as described in the GeneChip® Expression Analysis Technical Manual (Affymetrix, Oxford, UK). For each β-cryptoxanthin-treated tissue, five replicates were performed and compared to six replicates of untreated control mice. […] Subsequently, the microarrays were subjected to laser scanning and the hybridization signals were analyzed with Genedata Expressionist® and Phylosopher® software packages (Genedata, Basel, Switzerland). […]

[3] = 0.25 μM, 1 day in culture, C2C12
[4] = 0.25 μM, 2 days in culture, C2C12
[5] = 0.25 μM, 3 days in culture, C2C12
[6] = 0.25 μM, 4 days in culture, C2C12
[7] = 0.25 μM, 5 days in culture, C2C12
[8] = 0.25 μM, 6 days in culture, C2C12
[9] = 0.25 μM, 7 days in culture, C2C12

`CC1=C(/C=C/C(C)=C/C=C/C(C)=C/C=C/C=C(C)/C=C/C=C(C)/C=C/C2=C(C)C[C@@H](O)CC2(C)C)C(C)(C)CCC1` [β-cryptoxanthin] was tested, and the “soluble protein μg/well” value [1, 3] was 536 μg/well, the “total protein μg/well” value [1, 3] was 703.6 μg/well and the “μg soluble protein/μg DNA” value [1, 3] was 227 μg soluble protein/μg DNA. For the same molecule, the “soluble protein μg/well” value [1, 4] was 592 μg/well, the “total protein μg/well” value [1, 4] was 753.6 μg/well and the “μg soluble protein/μg DNA” value [1, 4] was 244 μg soluble protein/μg DNA. For the same molecule, the “soluble protein μg/well” value [1, 5] was 626 μg/well, the “total protein μg/well” value [1, 5] was 771.2 μg/well and the “μg soluble protein/μg DNA” value [1, 5] was 274 μg soluble protein/μg DNA. For the same molecule, the “soluble protein μg/well” value [1, 6] was 915 μg/well, the “total protein μg/well” value [1, 6] was 1136 μg/well and the “μg soluble protein/μg DNA” value [1, 6] was 406 μg soluble protein/μg DNA. For the same molecule, the “soluble protein μg/well” value [1, 7] was 1091 μg/well, the “total protein μg/well” value [1, 7] was 1314.4 μg/well and the “μg soluble protein/μg DNA” value [1, 7] was 505 μg soluble protein/μg DNA. For the same molecule, the “soluble protein μg/well” value [1, 8] was 1267 μg/well, the “total protein μg/well” value [1, 8] was 1411.2 μg/well and the “μg soluble protein/μg DNA” value [1, 8] was 713 μg soluble protein/μg DNA. The “soluble protein μg/well” value [1, 9] was 1284 μg/well, the “total protein μg/well” value [1, 9] was 1257.2 μg/well and the “μg soluble protein/μg DNA” value [1, 9] was 693 μg soluble protein/μg DNA. For the same molecule, the “change in soluble protein” value ([1]; 0.25 μM, C2C12 (Table 3)) was “an increase in soluble protein”, the “change in specific amount of protein/μg DNA” value ([1]; 0.25 μM, C2C12 (Table 4)) was “an increase in the specific amount of protein/μg DNA” and the “increase in total protein” value ([1]; 0.25 μM, C2C12, versus vehicle (Table 2)) was “approx. 1.4 fold”. The “soluble protein μg/well” value ([1]; 1 μM, 1 day in culture, C2C12) was 574 μg/well, the “total protein μg/well” value ([1]; 1 μM, 1 day in culture, C2C12) was 750 μg/well and the “μg soluble protein/μg DNA” value ([1]; 1 μM, 1 day in culture, C2C12) was 246 μg soluble protein/μg DNA. For the same molecule, the “soluble protein μg/well” value ([1]; 1 μM, 2 days in culture, C2C12) was 547 μg/well, the “total protein μg/well” value ([1]; 1 μM, 2 days in culture, C2C12) was 757.2 μg/well and the “μg soluble protein/μg DNA” value ([1]; 1 μM, 2 days in culture, C2C12) was 231 μg soluble protein/μg DNA. For the same molecule, the “soluble protein μg/well” value ([1]; 1 μM, 3 days in culture, C2C12) was 609 μg/well, the “total protein μg/well” value ([1]; 1 μM, 3 days in culture, C2C12) was 750 μg/well and the “μg soluble protein/μg DNA” value ([1]; 1 μM, 3 days in culture, C2C12) was 265 μg soluble protein/μg DNA. For the same molecule, the “soluble protein μg/well” value ([1]; 1 μM, 4 days in culture, C2C12) was 857 μg/well, the “μg soluble protein/μg DNA” value ([1]; 1 μM, 4 days in culture, C2C12) was 382 μg soluble protein/μg DNA and the “soluble protein μg/well” value ([1]; 1 μM, 5 days in culture, C2C12) was 1126 μg/well. For the same molecule, the “total protein μg/well” value ([1]; 1 μM, 5 days in culture, C2C12) was 1236 μg/well, the “μg soluble protein/μg DNA” value ([1]; 1 μM, 5 days in culture, C2C12) was 539 μg soluble protein/μg DNA and the “soluble protein μg/well” value ([1]; 1 μM, 6 days in culture, C2C12) was 1146 μg/well. The “total protein μg/well” value ([1]; 1 μM, 6 days in culture, C2C12) was 1232.4 μg/well, the “μg soluble protein/μg DNA” value ([1]; 1 μM, 6 days in culture, C2C12) was 624 μg soluble protein/μg DNA and the “soluble protein μg/well” value ([1]; 1 μM, 7 days in culture, C2C12) was 1118 μg/well. For the same molecule, the “total protein μg/well” value ([1]; 1 μM, 7 days in culture, C2C12) was 1193.2 μg/well, the “μg soluble protein/μg DNA” value ([1]; 1 μM, 7 days in culture, C2C12) was 644 μg soluble protein/μg DNA and the “effect on protein formation at higher concentration” value ([1]; 1 μM, C2C12) was “plateaued”. For the same molecule, the “expression of genes involved in protein synthesis in skin, liver, kidney and spleen” value [2] was “up-regulated”.
